From patent publication US10167293B2, “[8-(phenylsulfonyl)-3,8-diazabicyclo[3.2.1]oct-3-yl](1H-1,2,3-triazol-4-yl)methanones” (BAYER PHARMA AKTIENGESELLSCHAFT, priority 2016, dated 2019)

Biological target: recombinant human AKR1C3 (Homo sapiens (Human), UniProt P42330)
Assay: AKR1C3-inhibitory activity assay (Coumberone to Coumberol fluorescence)
Type: biochemical
Conditions: recombinant human AKR1C3, 15 min pre-incubation, 10 μM NADPH, 0.3 μM Coumberone
Experimental: The AKR1C3-inhibitory activity of the substances of the present invention was measured in the AKR1C3 assay described in the paragraphs below.
Essentially, the enzyme activity is measured by quantification of the generation of Coumberol from Coumberone (Halim et al. J. AM. CHEM. SOC. 2008, 130:14123-14128 and Yee et al. Proc. Natl. Acad. Sci. USA 2006, 103:13304-13309). In this test, the increase of the highly fluorescent Coumberol by NADPH—(nicotinamide adenine dinucleotide phosphate)-dependent reduction of the non-fluorescent Coumberone by AKR1C3 was determined.
The enzyme used was recombinant human AKR1C3 (Aldo-keto reductase family 1 member C3; GenBank Accession No. NM_003739). This was expressed in E. coli as GST (glutathione S transferase) fusion protein and purified by glutathione Sepharose affinity chromatography. The GST was removed by digestion with thrombin and subsequent size exclusion chromatography (Dufort, I., Rheault, P., Huang, X F., Soucy, P., and Luu-The, V., Endocrinology 140, 568-574 (1999)).
For the assay, 50 nl of a 100-fold concentrated solution of the test substance in DMSO were pipetted into a black low-volume 384-well microtiter plate (Greiner Bio-One, Frickenhausen, Germany), 2.5 μl of a solution of AKR1C3 in assay buffer [50 mM potassium phosphate buffer pH 7, 1 mM DTT, 0.0022% (w/v) Pluronic F-127, 0.01% BSA (w/v) and protease inhibitor cocktail (Complete, EDTA-free Protease Inhibitor Cocktail from Roche)] were added and the mixture was incubated for 15 min to allow pre-binding of the substances to the enzyme prior to the enzyme reaction. The enzyme reaction was then started by addition of 2.5 μl of a solution of NADPH (20 μM→final concentration in 5 μl of assay volume is 10 μM) and Coumberone (0.6 μM→final concentration in 5 μl of assay volume is 0.3 μM) in assay buffer, and the resulting mixture was incubated at 22° C. for the reaction time of typically 90 min. The concentration of the AKR1C3 and the reaction time was adapted to the respective activity of the enzyme preparation and adjusted such that the assay was carried out in the linear range. Typical AKR1C3 concentrations were in the region of 1 nM. The reaction was stopped by addition of 2.5 μl of a stop solution consisting of 3 μM EM-1404 as inhibitor (U.S. Pat. No. 6,541,463) in 50 mM HEPES pH7.5 (3 μM EM-1404→final concentration in 7.5 μl of assay volume is 1 μM). The fluorescence of the Coumberole was then measured at 520 nm (excitation at 380 nm) using a suitable measuring instrument (Pherastar from BMG Labtechnologies). The intensity of the fluorescence was used as a measure of the amount of Coumberole formed and thus of the enzyme activity of AKR1C3. The data were normalized (enzyme reaction without inhibitor=0% inhibition; all other assay components, but no enzyme=100% inhibition).

recombinant human AKR1C3, sequence (P42330 whole entry): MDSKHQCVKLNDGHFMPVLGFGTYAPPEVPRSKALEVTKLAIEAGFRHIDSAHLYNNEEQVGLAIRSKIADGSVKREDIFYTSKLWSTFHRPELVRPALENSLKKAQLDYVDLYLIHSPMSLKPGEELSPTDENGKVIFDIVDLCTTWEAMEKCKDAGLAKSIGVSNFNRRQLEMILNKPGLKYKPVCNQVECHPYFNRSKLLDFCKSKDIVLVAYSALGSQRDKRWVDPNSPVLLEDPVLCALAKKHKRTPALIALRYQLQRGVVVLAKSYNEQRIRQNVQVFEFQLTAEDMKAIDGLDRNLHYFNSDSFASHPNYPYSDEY

| Compound | IC50 [nM] |
| --- | --- |
| O=C(c1cnn[nH]1)N1CC2CCC(C1)N2S(=O)(=O)c1ccc(Br)cc1 [Example 38, {8-[(4-bromophenyl)sulfonyl]-3,8-diazabicyclo[3.2.1]oct-3-yl}(1H-1,2,3-triazol-5-yl)methanone] | 1.5 |
| O=C(c1cnn[nH]1)N1CC2CCC(C1)N2S(=O)(=O)c1ccc(F)c(F)c1F [Example 59, 1H-1,2,3-triazol-5-yl{8-[(2,3,4-trifluorophenyl)sulfonyl]-3,8-diazabicyclo[3.2.1]oct-3-yl}methanone] | 2.2 |
| Cc1cccc(S(=O)(=O)N2C3CCC2CN(C(=O)c2cnn[nH]2)C3)c1 [Example 13, {8-[(3-methylphenyl)sulfonyl]-3,8-diazabicyclo[3.2.1]oct-3-yl}(1H-1,2,3-triazol-5-yl)methanone] | 1.4 |
| COc1ccc(Cl)cc1S(=O)(=O)N1C2CCC1CN(C(=O)c1cnn[nH]1)C2 [Example 57, {8-[(5-chloro-2-methoxyphenyl)sulfonyl]-3,8-diazabicyclo[3.2.1]oct-3-yl}(1H-1,2,3-triazol-5-yl)methanone] | 9.7 |
| O=C(c1cnn[nH]1)N1CC2CCC(C1)N2S(=O)(=O)c1cc(F)c(F)cc1F [Example 62, 1H-1,2,3-triazol-5-yl{8-[(2,4,5-trifluorophenyl)sulfonyl]-3,8-diazabicyclo[3.2.1]oct-3-yl}methanone] | 2.8 |
| O=C(c1cnn[nH]1)N1CC2CCC(C1)N2S(=O)(=O)c1ccccc1[N+](=O)[O-] [Example 46, {8-[(2-nitrophenyl)sulfonyl]-3,8-diazabicyclo[3.2.1]oct-3-yl}(1H-1,2,3-triazol-5-yl)methanone] | 0.9 |
| N#Cc1ccccc1S(=O)(=O)N1C2CCC1CN(C(=O)c1cnn[nH]1)C2 [Example 35, 2-{[3-(1H-1,2,3-triazol-5-ylcarbonyl)-3,8-diazabicyclo[3.2.1]oct-8-yl]sulfonyl}benzonitrile] | 6 |
| O=C(c1cnn[nH]1)N1CC2CCC(C1)N2S(=O)(=O)c1ccc(F)cc1 [Example 16, {8-[(4-fluorophenyl)sulfonyl]-3,8-diazabicyclo[3.2.1]oct-3-yl}(1H-1,2,3-triazol-5-yl)methanone] | 2.2 |
| N#Cc1cc(S(=O)(=O)N2C3CCC2CN(C(=O)c2cnn[nH]2)C3)ccc1F [Example 60, 2-fluoro-5-{[3-(1H-1,2,3-triazol-5-ylcarbonyl)-3,8-diazabicyclo[3.2.1]oct-8-yl]sulfonyl}benzonitrile] | 28.4 |
| O=C(c1cnn[nH]1)N1CC2CCC(C1)N2S(=O)(=O)c1cccc2nsnc12 [Example 54, [8-(2,1,3-benzothiadiazol-4-ylsulfonyl)-3,8-diazabicyclo[3.2.1]oct-3-yl](1H-1,2,3-triazol-5-yl)methanone] | 1.2 |
| Cc1ccc(S(=O)(=O)N2C3CCC2CN(C(=O)c2cnn[nH]2)C3)cc1 [Example 14, {8-[(4-methylphenyl)sulfonyl]-3,8-diazabicyclo[3.2.1]oct-3-yl}(1H-1,2,3-triazol-5-yl)methanone] | 1.9 |
| O=C(c1c[nH]nn1)N1CC2CCC(C1)N2S(=O)(=O)c1ccc(Cl)s1 [Example 11, {8-[(5-chlorothiophen-2-yl)sulfonyl]-3,8-diazabicyclo[3.2.1]oct-3-yl}(1H-1,2,3-triazol-4-yl)methanone] | 1.1 |
| Cc1ccccc1S(=O)(=O)N1C2CCC1CN(C(=O)c1cnn[nH]1)C2 [Example 6, {8-[(2-methylphenyl)sulfonyl]-3,8-diazabicyclo[3.2.1]oct-3-yl}(1H-1,2,3-triazol-4-yl)methanone] | 1.7 |
| O=C(c1c[nH]nn1)N1CC2CCC(C1)N2S(=O)(=O)c1cc(Cl)cc(Cl)c1 [Example 9, {8-[(3,5-dichlorophenyl)sulfonyl]-3,8-diazabicyclo[3.2.1]oct-3-yl}(1H-1,2,3-triazol-4-yl)methanone] | 0.9 |
| O=C(c1cnn[nH]1)N1CC2CCC(C1)N2S(=O)(=O)c1cccc2c1OCC2 [Example 69, [8-(2,3-dihydro-1-benzofuran-7-ylsulfonyl)-3,8-diazabicyclo[3.2.1]oct-3-yl](1H-1,2,3-triazol-5-yl)methanone] | 0.6 |
| COc1cc(C)ccc1S(=O)(=O)N1C2CCC1CN(C(=O)c1cnn[nH]1)C2 [Example 67, {8-[(2-methoxy-4-methylphenyl)sulfonyl]-3,8-diazabicyclo[3.2.1]oct-3-yl}(1H-1,2,3-triazol-5-yl)methanone] | 1 |
| Cc1ccc(Cl)cc1S(=O)(=O)N1C2CCC1CN(C(=O)c1cnn[nH]1)C2 [Example 63, {8-[(5-chloro-2-methylphenyl)sulfonyl]-3,8-diazabicyclo[3.2.1]oct-3-yl}(1H-1,2,3-triazol-5-yl)methanone] | 1.7 |
| O=C(c1cnn[nH]1)N1CC2CCC(C1)N2S(=O)(=O)c1cccc(Cl)c1 [Example 5, {8-[(3-chlorophenyl)sulfonyl]-3,8-diazabicyclo[3.2.1]oct-3-yl}(1H-1,2,3-triazol-4-yl)methanone] | 1.2 |
| COc1ccccc1S(=O)(=O)N1C2CCC1CN(C(=O)c1cnn[nH]1)C2 [Example 64, {8-[(2-methoxyphenyl)sulfonyl]-3,8-diazabicyclo[3.2.1]oct-3-yl}(1H-1,2,3-triazol-5-yl)methanone] | 1.3 |
| O=C(c1cnn[nH]1)N1CC2CCC(C1)N2S(=O)(=O)c1ccc(Cl)cc1 [Example 22, {8-[(4-chlorophenyl)sulfonyl]-3,8-diazabicyclo[3.2.1]oct-3-yl}(1H-1,2,3-triazol-5-yl)methanone] | 1.5 |
| Cc1cc(C)cc(S(=O)(=O)N2C3CCC2CN(C(=O)c2cnn[nH]2)C3)c1 [Example 18, {8-[(3,5-dimethylphenyl)sulfonyl]-3,8-diazabicyclo[3.2.1]oct-3-yl}(1H-1,2,3-triazol-5-yl)methanone] | 1 |
| O=C(c1cnn[nH]1)N1CC2CCC(C1)N2S(=O)(=O)c1cccc(C(F)(F)F)c1 [Example 29, 1H-1,2,3-triazol-5-yl[8-{[3-(trifluoromethyl)phenyl]sulfonyl}-3,8-diazabicyclo[3.2.1]oct-3-yl]methanone] | 0.9 |
| O=C(c1cnn[nH]1)N1CC2CCC(C1)N2S(=O)(=O)c1cccc2nonc12 [Example 55, [8-(2,1,3-benzoxadiazol-4-ylsulfonyl)-3,8-diazabicyclo[3.2.1]oct-3-yl](1H-1,2,3-triazol-5-yl)methanone] | 2.7 |
| O=C(c1cnn[nH]1)N1CC2CCC(C1)N2S(=O)(=O)c1cccc2cccnc12 [Example 40, [8-(quinolin-8-ylsulfonyl)-3,8-diazabicyclo[3.2.1]oct-3-yl](1H-1,2,3-triazol-5-yl)methanone] | 3.4 |
| O=C(c1cnn[nH]1)N1CC2CCC(C1)N2S(=O)(=O)c1ccc(F)cc1F [Example 25, {8-[(2,4-difluorophenyl)sulfonyl]-3,8-diazabicyclo[3.2.1]oct-3-yl}(1H-1,2,3-triazol-5-yl)methanone] | 2.6 |
| O=C(c1cnn[nH]1)N1CC2CC[C@@H](C1)N2S(=O)(=O)c1cccc(Cl)c1Cl [Example 53, {(1S)-8-[(2,3-dichlorophenyl)sulfonyl]-3,8-diazabicyclo[3.2.1]oct-3-yl}(1H-1,2,3-triazol-5-yl)methanone] | 0.8 |
| O=C(c1cnn[nH]1)N1CC2CCC(C1)N2S(=O)(=O)c1cccc(F)c1Cl [Example 71, {8-[(2-chloro-3-fluorophenyl)sulfonyl]-3,8-diazabicyclo[3.2.1]oct-3-yl}(1H-1,2,3-triazol-5-yl)methanone] | 0.8 |
| O=C(c1cnn[nH]1)N1CC2CCC(C1)N2S(=O)(=O)c1ccccc1OC(F)(F)F [Example 42, 1H-1,2,3-triazol-5-yl[8-{[2-(trifluoromethoxy)phenyl]sulfonyl}-3,8-diazabicyclo[3.2.1]oct-3-yl]methanone] | 1.1 |
